# Measured values reported in article PMC5958064, “Single cell analysis of kynurenine and System L amino acid transport in T cells” (Nature Communications, 2018).
# Tests used:
# [1] = test system: AHR; assay: Cyp1a1 mRNA induction in TH17cond CD4+ T cells (qPCR); assay type: cell-based, mouse
# Procedure: To activate primary T cells, spleens and/or lymph nodes (LN) were removed, disaggregated and red blood cells lysed. Cells were stimulated with 1 μg/ml of the CD3 monoclonal antibody (2C11) and 2 μg/ml anti-CD28 (37.51; ebiosciences) to trigger the TCR. Naive CD4^+ T cells and 24 h TCR-activated CD4^+ T cells were purified using CD4 isolation kit (EasySep, STEMCELL Technologies). […] Proleukin, Novartis) for a further 3–5 days. To generate TH1s and TH17s, murine CD8^+ T cells were depleted from lymph node preparations using CD8 depletion kit (EasySep, STEMCELL Technologies). […] RnD Systems) and IL-2 (20 ng/ml) and for TH17s; cytokines IL-6 (50 ng/ml, Peprotech), IL-1β (10 ng/ml, Peprotech) and TGFβ (2 ng/ml, Peprotech). TH17s were cultured in IMDM (Gibco). All other cells were cultured in RPMI 1640 containing L-glutamine (Gibco). Culture media was supplemented with 10% FBS (Gibco), 50 μM β-mercaptoethanol (β-ME, Sigma) and penicillin/streptomycin (Gibco). Cells were incubated at 37 °C with 5% CO2 throughout. […] RNA was purified using the RNeasy RNA purification Mini Kit (Qiagen) (Genomic DNA was digested with RNase-free DNase (Qiagen) following manufacturer instructions) and reverse-transcribed using the iScript cDNA synthesis kit (BioRad). Quantitative PCR was performed in 96-well plate format using iQ SYBR Green-based detection (BioRad) on a BioRad iCycler.
# [2] = test system: AHR; parameters: method as in PMID 25657351, PMID 29279331; settings: cited from earlier work
# [3] = target: T1, System L transporter SLC7A5 (Mus musculus, UniProt Q9Z127); assay: Radiolabelled 3H-kynurenine uptake in T cells; assay type: cell-based; settings: compared with kynurenine Km ~200 μM
# T1 construct: endogenous in cells
# Procedure: To activate primary T cells, spleens and/or lymph nodes (LN) were removed, disaggregated and red blood cells lysed. Cells were stimulated with 1 μg/ml of the CD3 monoclonal antibody (2C11) and 2 μg/ml anti-CD28 (37.51; ebiosciences) to trigger the TCR. Naive CD4^+ T cells and 24 h TCR-activated CD4^+ T cells were purified using CD4 isolation kit (EasySep, STEMCELL Technologies). […] Proleukin, Novartis) for a further 3-5 days. To generate TH1s and TH17s, murine CD8^+ T cells were depleted from lymph node preparations using CD8 depletion kit (EasySep, STEMCELL Technologies). […] RnD Systems) and IL-2 (20 ng/ml) and for TH17s; cytokines IL-6 (50 ng/ml, Peprotech), IL-1β (10 ng/ml, Peprotech) and TGFβ (2 ng/ml, Peprotech). TH17s were cultured in IMDM (Gibco). All other cells were cultured in RPMI 1640 containing L-glutamine (Gibco). Culture media was supplemented with 10% FBS (Gibco), 50 μM β-mercaptoethanol (β-ME, Sigma) and penicillin/streptomycin (Gibco). Cells were incubated at 37 °C with 5% CO2 throughout. […] Cells were pelleted below the oil, the aqueous supernatant solution, followed by the silicon oil/dibutyl phthalate mixture was aspirated, and the cell pellet underneath resuspended in 200 μl NaOH (0.5 M) and β-radioactivity measured by liquid scintillation counting in a Beckman LS 6500 Multi-Purpose Scintillation Counter (Beckman Coulter). […] Where indicated, the sodium free buffer was prepared using TMACl as described in Baird et al.[35] Data are expressed as molecules radiotracer per cell per minute. […] All other chemicals were obtained from Sigma.
# [4] = target: T1, System L transporter SLC7A5; assay: Flow cytometry kynurenine uptake assay (450 nm fluorescence) in T cells; assay type: cell-based; settings: for IC50: 37 °C; for IC50 / effect on kynurenine transport (450 nm fluorescence): 4 min; for effect on kynurenine transport ex vivo: D7 rLM-infected CD8+ T cells; for effect on kynurenine transport ex vivo / effect on kynurenine transport (450 nm fluorescence): BCH 10 mM, Leu 5 mM, Lys 5 mM; for effect on kynurenine transport (450 nm fluorescence): TCR-stimulated CD8+ T cells or CTLs
# Text: For cell surface staining, antibodies conjugated to FITC, PE, APC, Alexafluor 647 (A647), APC-efluor780 (APCe780), and PerCPCy5.5 were obtained from either BD Pharmingen, eBioscience or Biolegend. Fc receptors were blocked using Fc Block (BD Pharmingen). Antibody clones used were: CD4 (RM4-5), CD8a (53-6.7), TCRβ (H57-597), CD44 (IM7), CD45.1 (A20), CD45.2 (104) and CD98 (RC388). Cells were fixed using 1% paraformaldehyde. Standard intracellular cytokine staining protocols were followed for IFNγ (clone XMG1.2; Biolegend) staining. Data were acquired on a LSR Fortessa II with DIVA software or a FACSVerse flow cytometer with FACSuite software (BD Biosciences) and analysed using FlowJo software version 9.9.5 (TreeStar).
# Start with at least 1 × 10^6 cells per condition, to obtain at least 200,000 events analysed by flow cytometry at the end of the protocol. […] If required, surface cell antibody staining should be performed prior to uptake assay protocol. This may be performed at room temperature or 4 °C, however test samples must be warmed to 37 °C, e.g. in water bath, prior to kynurenine uptake. (As with all multi-parameter flow cytometry, appropriate antibody staining controls must also be performed.) Samples can be fixed immediately after uptake assay by addition of 4% (vol/vol) paraformaldehyde (PFA; to a final concentration of 1%) for 30 min at room temperature.
# For kynurenine uptake assay; pre-warm kynurenine (800 μM, in HBSS), BCH (40 mM, in HBSS) and lysine (20 mM, HBSS) and HBSS to 37 °C. After surface antibody staining of samples, resuspend cells in 200 μl warmed HBSS (1–5 × 10^6 cells in FACS tubes, or scale accordingly into plates). Keep cells in water bath at 37 °C. Add 100 μl of HBSS, or BCH or lysine to appropriate samples. Add 100 μl HBSS to no kynurenine controls (final volume 400 μl). Finally, add 100 μl kynurenine to appropriate samples. Stop uptake after 4 min by adding 125 μl 4% PFA for 30 min at room temperature, in the dark. The final concentrations for uptake assay are: 200 μM kynurenine; +/-10 mM BCH; +/-5 mM lysine. After fixation, wash cells twice in PBS/0.5% BSA and resuspend in PBS/0.5% BSA prior to acquisition on flow cytometer. The 405 nm laser and 450/50 BP filter are used for kynurenine fluorescence detection.
# To monitor kynurenine uptake in live cells, acquire data on flow cytometer immediately following addition of kynurenine and plot fluorescence against time.
# [5] = test system: mTORC1; assay: mTORC1 activity in CTLs after leucine removal and refeeding; assay type: cell-based, mouse; settings: CTLs removed from leucine, refed leucine 100uM ± Kyn 100uM
# Text: page 13: • We […] would not be able to measure the levels of in vivo ky nurenine uptake with this assay (for the reasons explained above). However, this is a pertinent question, and will relate to the total amount of available kynurenine compared to alternative System L substrates. The detailed micro-environmental metabolomics techniques required to perform this kind of analysis is beyond the scope of this paper, however we have tried to address this point in the discussion. Second, did CD4 T cells (Foxp3-) and Tregs (Foxp3+) from Lm-infected mice also i mport Ky n? […] This, also, is a very interesting aspect, however we feel that it is beyond the scope of this paper. Point 4: Data presented in Figures 4 & 5 show convincingly that SLC7A5 ablation in CD4 T cells abolishes Kyn uptake in CD4 T cells selectively and that imported Kyn triggers AhR signaling in CD4 T cells, respectively. However, no data is presented to address the biological significance of these findings, specifically regarding the reported ability of Kyn to suppress Th1 responses (e.g. IFNg production) or to reinforce Treg-mediated suppression of effector T cells via AhR signaling. […]
# T1 sequence (Q9Z127 whole entry): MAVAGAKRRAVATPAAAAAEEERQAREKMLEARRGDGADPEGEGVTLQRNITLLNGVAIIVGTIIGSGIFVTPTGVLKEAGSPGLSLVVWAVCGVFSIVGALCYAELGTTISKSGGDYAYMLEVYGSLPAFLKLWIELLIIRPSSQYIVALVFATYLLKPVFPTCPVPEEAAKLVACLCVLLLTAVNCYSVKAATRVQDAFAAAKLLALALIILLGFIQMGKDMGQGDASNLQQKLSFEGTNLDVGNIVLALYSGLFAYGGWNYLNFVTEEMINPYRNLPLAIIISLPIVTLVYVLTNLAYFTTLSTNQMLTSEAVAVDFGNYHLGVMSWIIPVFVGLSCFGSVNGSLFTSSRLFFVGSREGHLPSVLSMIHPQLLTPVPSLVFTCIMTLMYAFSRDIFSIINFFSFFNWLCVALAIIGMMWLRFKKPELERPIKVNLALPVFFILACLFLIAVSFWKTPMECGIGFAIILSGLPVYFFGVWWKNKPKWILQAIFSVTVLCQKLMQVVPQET
# T1 sequence (P10852 whole entry partner): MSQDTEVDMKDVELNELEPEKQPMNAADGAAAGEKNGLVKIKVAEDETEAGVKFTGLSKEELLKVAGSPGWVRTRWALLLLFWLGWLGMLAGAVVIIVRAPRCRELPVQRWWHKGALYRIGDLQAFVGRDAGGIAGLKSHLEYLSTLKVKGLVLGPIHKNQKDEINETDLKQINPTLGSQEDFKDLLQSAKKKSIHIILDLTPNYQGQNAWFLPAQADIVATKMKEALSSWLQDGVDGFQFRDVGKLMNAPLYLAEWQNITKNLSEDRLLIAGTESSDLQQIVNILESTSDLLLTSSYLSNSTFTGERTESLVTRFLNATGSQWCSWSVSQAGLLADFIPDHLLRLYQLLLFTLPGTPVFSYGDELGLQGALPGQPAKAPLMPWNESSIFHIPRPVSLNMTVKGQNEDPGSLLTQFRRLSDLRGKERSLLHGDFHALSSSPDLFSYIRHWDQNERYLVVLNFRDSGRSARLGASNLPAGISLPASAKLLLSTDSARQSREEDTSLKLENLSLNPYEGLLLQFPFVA
compound,measurement,setting,value
Cc1ccccc1N=Nc1ccc(NC(=O)c2ccnn2C)c(C)c1 [CH223191],effect on kynurenine-induced Cyp1A1 mRNA,"[1]; D3 TH17cond cells, kynurenine 10 μM 2 h, CH223191 30 μM",completely blocked
"O=Cc1c2[nH]c3ccccc3c2cc2[nH]c3ccccc3c12 [FICZ, 6-formylindolo[3,2-b]carbazole]","Cyp1a1 mRNA induction, D3 versus D5 post activation","[1]; TH17cond CD4+ T cells, kynurenine 100 μM or FICZ 300 nM, 2 h",equivalent on D3 and D5
same,concentrations needed to activate the AHR,[2],pM/nM range
"Clc1cc2c(cc1Cl)Oc1cc(Cl)c(Cl)cc1O2 [TCDD, 2,3,7,8-tetrachlorodibenzo-p-dioxin]",concentrations needed to activate the AHR,[2],pM/nM range
CC(C)C[C@H](N)C(=O)O [leucine],Km of other System L substrates relative to Km of kynurenine,[3],~ 10 fold less
same,IC50,[4]; CTL,411 ± 30 µM
same,IC50,"[4]; D7 rLM CD8+ effector T cells from spleen, ex vivo",168 ± 38 µM
same,effect on kynurenine transport ex vivo,[4],blocked
same,effect on kynurenine transport (450 nm fluorescence),[4],blocks kynurenine transport to comparable levels as BCH
same,effect on mTORC1 activity,[5],establishes mTORC1 activity
NCCCC[C@H](N)C(=O)O [lysine],effect on kynurenine uptake,"[4]; CD3/CD28 activated wild-type T cells in co-culture, 5 mM lysine, BCH",did not inhibit kynurenine uptake
same,effect on kynurenine transport ex vivo,[4],not by lysine competition
same,effect on kynurenine transport (450 nm fluorescence),[4],does not affect kynurenine transport
CSCC[C@H](N)C(=O)O [methionine],Km of other System L substrates relative to Km of kynurenine,[3],~ 10 fold less
N[C@@H](Cc1c[nH]c2ccccc12)C(=O)O [tryptophan],Km of other System L substrates relative to Km of kynurenine,[3],~ 10 fold less
